Tests used:
[1] = tested on: primary cultured hepatocytes; conditions: 10 mM PTU, 1 hour and 3 hours after adding
Procedure: Rat hepatocytes, which were isolated by collagenase prefusion, are placed into a 24-well plate coated with collagen to have 10^5 cells/well and cultured for 4 hours. After removing the cells not fixed to the well, 10 mM of PTU was added to the cells and each of the 3 cultured media prior to adding the PTU, of 1 hour after adding the PTU, and of 3 hours after adding PTU, was sampled. After 3 hours of culturing, 0.5% of Triton-X100 was added to destroy the cells and a suspended solution was obtained. OCT, ALT and AST levels in each of the sampled cultured medium and the suspended solution after cell destruction were measured. […] Based upon an activity of the suspended solution as 100%, leakage rates of OCT, AST and ALT were calculated in each cultured medium obtained by sampling.

[2] = Rat thyrotoxicosis model (T3 administration); format: in vivo
Procedure: Each of blood OCT, AST and ALT levels was measured before and after the administration.

[3] = liver homogenate after 10 days T3, vs control group

Structure (SMILES) | levels of AST, ALT and OCT in cultured medium ([1]; FIG. 1) | OCT leakage rates compared to the ALT leakage rates ([1]; suspended solution after cell destruction = 100%) | ALT content in the liver [2, 3] | AST content in the liver [2, 3] | blood OCT level ([2]; male Wistar rats, T3 0.1 mg/kg/day s.c. for 10 days, ELISA, control group 14.0±1.6) [ng/mL] | blood ALT level ([2]; male Wistar rats, T3 0.1 mg/kg/day s.c. for 10 days, control group 8.2±0.8) [IU/L] | blood AST level ([2]; male Wistar rats, T3 0.1 mg/kg/day s.c. for 10 days, control group 29.0±5.1) [IU/L] | body weight ([2]; male Wistar rats, T3 0.1 mg/kg/day s.c. for 10 days, control group 303±15.9 g) [g]
CCCc1cc(=O)[nH]c(=S)[nH]1 [PTU, propylthiouracil] | elevated | higher | – | – | – | – | – | –
N[C@@H](Cc1cc(I)c(Oc2ccc(O)c(I)c2)c(I)c1)C(=O)O [T3] | – | – | elevated significantly | elevated significantly | 11.9 ± 2.5 | 11.2±0.6 | 40.0±6.51 | 266 ± 5.8

Reference: patent publication US20110189709A1, “METHOD FOR DETECTING HEPATIC INJURY DUE TO ANTITHYROID DRUG” (YAMASA CORPORATION, priority 2010, published 2011)
